The first experiment deals with T1, HSP90 (Homo sapiens (Human), UniProt P07900). Nature of the experiment: Hsp90 chaperone assay (refolding of heat-denatured luciferase). In kind it is biochemical.
Conditions: not given
As to the method:
(a) An In Vitro Assay which Determines the Ability of a Test Compound to Inhibit Hsp90 Chaperone Activity.
The Hsp90 chaperone assay was performed to measure the ability of HSP90 protein to refold the heat-denatured luciferase protein. HSP90 was first incubated with different concentrations of test compounds in denaturation buffer (25 mM Tris, pH7.5, 8 mM MgSO4, 0.01% bovine gamma globulin and 10% glycerol) at room temperature for 30 min. Luciferase protein was added to denaturation mix and incubated at 50° C. for 8 min. The final concentration of HSP90 and luciferase in denaturation mixture were 0.375 μM and 0.125 μM respectively. A 5 μl sample of the denatured mix was diluted into 25 μl of renaturation buffer (25 mM Tris, pH7.5, 8 mM MgSO4, 0.01% bovine gamma globulin and 10% glycerol, 0.5 mM ATP, 2 mM DTT, 5 mM KCl, 0.3 μM HSP70 and 0.15 μM HSP40). The renaturation reaction was incubated at room temperature for 150 min, followed by dilution of 10 μl of the renatured sample into 90 μl of luciferin reagent (Luclite, PerkinElmer Life Science). The mixture was incubated at dark for 5 min before reading the luminescence signal on a TopCount plate reader (PerkinElmer Life Science).
A word on the IC50: it is the midpoint of a concentration-inhibition curve. Compound `C#CCCCn1c(Sc2cc(OC)ccc2[N+](=O)[O-])nc2c(N)nccc21` [Compound 17, 2-(5-methoxy-2-nitrophenylthio)-1-(pent-4-ynyl)-1H-imidazo[4,5-c]pyridin-4-amine] showed an IC50 of no less than 10000 nM.
`C#CCCCn1c(Sc2cc(OC)ccc2Cl)nc2c(N)nccc21` [Compound 14, 2-(2-chloro-5-methoxyphenylthio)-1-(pent-4-ynyl)-1H-imidazo[4,5-c]pyridin-4-amine] registered an IC50 of 1000 to 10000 nM.
Consider `C#CCCCn1c(Sc2cc3c(cc2I)OCO3)nc2c(N)nccc21` [Compound 3, 2-(6-iodobenzo[d][1,3]dioxol-5-ylthio)-1-(pent-4-ynyl)-1H-imidazo[4,5-c]pyridin-4-amine], for which the IC50 was in the range of 100 to 1000 nM.
Regarding `C#CCCCn1c(Sc2cc(OC)ccc2C(C)=O)nc2c(N)nccc21` [Compound 19, 1-(2-(4-amino-1-(pent-4-ynyl)-1H-imidazo[4,5-c]pyridin-2-ylthio)-4-methoxyphenyl)ethanone], the IC50 was 1000 to 10000 nM.
On to `C#CCCCn1c(Sc2cc3c(cc2Cl)OCO3)nc2c(N)nccc21` [Compound 2, 2-(6-chlorobenzo[d][1,3]dioxol-5-ylthio)-1-(pent-4-ynyl)-1H-imidazo[4,5-c]pyridin-4-amine], for which the IC50 fell in the range of 100 to 1000 nM.
For `C#CCCCn1c(Sc2cc(OC)ccc2Br)nc2c(N)nccc21` [Compound 13, 2-(2-bromo-5-methoxyphenylthio)-1-(pent-4-ynyl)-1H-imidazo[4,5-c]pyridin-4-amine], the IC50 was in the range of 1000 to 10000 nM.

The next experiment addresses T1, HSP90. The experiment in a line: HSP90 competition binding (fluorescence polarization) assay with FITC labeled GM. To be noted: 24 hours of incubation at 4° C. The text has this:
(b) HSP90 Competition Binding (Fluorescence Polarization) Assay.
A fluorescein isothiocyanate (FITC) labeled GM was purchase from InvivoGen (ant-fgl-1). The interaction between HSP90 and labeled GM forms the basis for the fluorescence polarization assay. A free and fast-tumbling FITC labeled GM emits random light with respect to the plane of polarization plane of excited light, resulting in a lower polarization degree (mP) value. When GM is bound to HSP90, the complex tumble slower and the emitted light is polarized, resulting in a higher mP value. […] The assay buffer contained 20 mM HEPES (pH 7.3), 50 mM KCl, 1 mM DTT, 50 mM MgCl2, 20 mM Na2MoO4, 0.01% NP40 with 0.1 mg/ml bovine gamma-globulin.
`C#CCCCn1c(Sc2cc(OC)ccc2[N+](=O)[O-])nc2c(N)nccc21` [Compound 17, 2-(5-methoxy-2-nitrophenylthio)-1-(pent-4-ynyl)-1H-imidazo[4,5-c]pyridin-4-amine]: the IC50 was greater than 10000 nM.
`C#CCCCn1c(Sc2cc(OC)ccc2Cl)nc2c(N)nccc21` [Compound 14, 2-(2-chloro-5-methoxyphenylthio)-1-(pent-4-ynyl)-1H-imidazo[4,5-c]pyridin-4-amine] had an IC50 of 1000 to 10000 nM.
In turn, `C#CCCCn1c(Sc2cc3c(cc2I)OCO3)nc2c(N)nccc21` [Compound 3, 2-(6-iodobenzo[d][1,3]dioxol-5-ylthio)-1-(pent-4-ynyl)-1H-imidazo[4,5-c]pyridin-4-amine] returned an IC50 of less than 100 nM.
Same read-out and setting: then `C#CCCCn1c(Sc2cc(OC)ccc2C(C)=O)nc2c(N)nccc21` [Compound 19, 1-(2-(4-amino-1-(pent-4-ynyl)-1H-imidazo[4,5-c]pyridin-2-ylthio)-4-methoxyphenyl)ethanone], with 1000 to 10000 nM.
`C#CCCCn1c(Sc2cc3c(cc2Cl)OCO3)nc2c(N)nccc21` [Compound 2, 2-(6-chlorobenzo[d][1,3]dioxol-5-ylthio)-1-(pent-4-ynyl)-1H-imidazo[4,5-c]pyridin-4-amine] showed an IC50 of 100 to 1000 nM.
The compound `C#CCCCn1c(Sc2cc(OC)ccc2Br)nc2c(N)nccc21` [Compound 13, 2-(2-bromo-5-methoxyphenylthio)-1-(pent-4-ynyl)-1H-imidazo[4,5-c]pyridin-4-amine] showed an IC50 of 1000 to 10000 nM.

The record behind these values is patent US9630965B2, “Fused amino pyridine as HSP90 inhibitors” (Curis, Inc., priority 2007, dated 2017).
